From ChEMBL document CHEMBL1201862, “PubChem BioAssay data set” (2004)
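These data come from cells grown in 96-well plates and exposed to compound for 48 hours at five concentrations. Abbreviation: GI50, concentration required for 50% inhibition of growth.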 Activity calls are given as the source filed them. Rule as the data show it: active = GI50 up to about 1.1 µM and inactive = higher.

Assays:
Assay in all cases: growth of human tumour cells (NCI), 48 h
[1] = tested on: EKVX
[2] = tested on: SF-268
[3] = tested on: HCT-116
[4] = tested on: M14
[5] = tested on: BT-549
[6] = tested on: NCI/ADR-RES
[7] = tested on: ACHN
[8] = tested on: K562
[9] = tested on: HOP-62
[10] = tested on: COLO 205
[11] = tested on: SK-MEL-28
[12] = tested on: HT-29
[13] = tested on: OVCAR-3
[14] = tested on: SK-MEL-5
[15] = tested on: LOX IMVI
[16] = tested on: TK-10
[17] = tested on: RPMI-8226
[18] = tested on: SR
[19] = tested on: NCI-H226
[20] = tested on: SW-620
[21] = tested on: CAKI-1
[22] = tested on: 786-0
[23] = tested on: PC-3
[24] = tested on: SK-MEL-2
[25] = tested on: SF-295
[26] = tested on: RXF 393
[27] = tested on: T47D
[28] = tested on: KM12
[29] = tested on: NCI-H522
[30] = tested on: U-251
[31] = tested on: OVCAR-4
[32] = tested on: SNB-19
[33] = tested on: MDA-N
[34] = tested on: CCRF-CEM
[35] = tested on: DU-145
[36] = tested on: UACC-62
[37] = tested on: HOP-92
[38] = tested on: MCF7
[39] = tested on: OVCAR-8
[40] = tested on: MDA-MB-435
[41] = tested on: NCI-H460
[42] = tested on: MOLT-4
[43] = tested on: SK-OV-3
[44] = tested on: Malme-3M
[45] = tested on: A549
[46] = tested on: SNB-75
[47] = tested on: UO-31
[48] = tested on: Hs-578T
[49] = tested on: HCT-15
[50] = tested on: HL-60
[51] = tested on: UACC-257
[52] = tested on: IGROV-1
[53] = tested on: MDA-MB-231
[54] = tested on: HCC 2998
[55] = tested on: SF-539
[56] = tested on: NCI-H23
[57] = tested on: OVCAR-5
[58] = tested on: SN12C
[59] = tested on: A498

`CC1=NN(c2ccc(C)cc2)C2(C1)SCC(=O)N2c1nc2ccccc2s1` (centres undefined) was tested, and the GI50 [1] was 21.9 µM (inactive), the GI50 [2] was 20.2 µM (inactive) and the GI50 [3] was 17.8 µM (inactive). The GI50 [4] was 22.7 µM (inactive), the GI50 [5] was 24.2 µM (inactive) and the GI50 [6] was 16.2 µM (inactive). The GI50 [7] was 15.6 µM (inactive), the GI50 [8] was 24.2 µM (inactive) and the GI50 [9] was 16.9 µM (inactive). The GI50 [10] was 22.7 µM (inactive), the GI50 [11] was 24.2 µM (inactive) and the GI50 [12] was 30.5 µM (inactive). For the same compound, the GI50 [13] was 12.2 µM (inactive), the GI50 [14] was 11.4 µM (inactive) and the GI50 [15] was 19.6 µM (inactive). The GI50 [16] was 28 µM (inactive), the GI50 [17] was 17.7 µM (inactive) and the GI50 [18] was 7.11 µM (inactive). The GI50 [19] was 11.3 µM (inactive), the GI50 [20] was 24.3 µM (inactive) and the GI50 [21] was 31 µM (inactive). For the same compound, the GI50 [22] was 20.1 µM (inactive), the GI50 [23] was 20.5 µM (inactive) and the GI50 [24] was 21.6 µM (inactive). The GI50 [25] was 13 µM (inactive), the GI50 [26] was 13.3 µM (inactive) and the GI50 [27] was 11.8 µM (inactive). The GI50 [28] was 27 µM (inactive), the GI50 [29] was 16.7 µM (inactive) and the GI50 [30] was 16.6 µM (inactive). For the same compound, the GI50 [31] was 20.2 µM (inactive), the GI50 [32] was 33.1 µM (inactive) and the GI50 [33] was 20.7 µM (inactive). The GI50 [34] was 5.22 µM (inactive), the GI50 [35] was 29.5 µM (inactive) and the GI50 [36] was 14.3 µM (inactive). The GI50 [37] was 49.3 µM (inactive), the GI50 [38] was 4.7 µM (inactive) and the GI50 [39] was 31.6 µM (inactive). The GI50 [40] was 16.4 µM (inactive), the GI50 [41] was 13.4 µM (inactive) and the GI50 [42] was 9.66 µM (inactive). The GI50 [43] was 22.1 µM (inactive), the GI50 [44] was 23.5 µM (inactive) and the GI50 [45] was 31.5 µM (inactive). For the same compound, the GI50 [46] was 16.1 µM (inactive), the GI50 [47] was 22.9 µM (inactive) and the GI50 [48] was 32.1 µM (inactive). For the same compound, the GI50 [49] was 20.5 µM, the GI50 [50] was 13.1 µM (inactive) and the GI50 [51] was 19.5 µM (inactive). The GI50 [52] was 12.9 µM (inactive), the GI50 [53] was 15.5 µM (inactive) and the GI50 [54] was 22.9 µM (inactive). The GI50 [55] was 19 µM (inactive), the GI50 [56] was 24 µM (inactive) and the GI50 [57] was 37.2 µM (inactive). For the same compound, the GI50 [58] was 11.2 µM (inactive) and the GI50 [59] was 19.6 µM (inactive).
